This is an account of results in ChEMBL document CHEMBL2412971, “Selective orexin receptor antagonists” (Bioorg Med Chem Lett, 2013).

The target in test [1] is T1, Orexin receptor type 2 (Homo sapiens, UniProt O43614).
T1 sequence (O43614 whole entry): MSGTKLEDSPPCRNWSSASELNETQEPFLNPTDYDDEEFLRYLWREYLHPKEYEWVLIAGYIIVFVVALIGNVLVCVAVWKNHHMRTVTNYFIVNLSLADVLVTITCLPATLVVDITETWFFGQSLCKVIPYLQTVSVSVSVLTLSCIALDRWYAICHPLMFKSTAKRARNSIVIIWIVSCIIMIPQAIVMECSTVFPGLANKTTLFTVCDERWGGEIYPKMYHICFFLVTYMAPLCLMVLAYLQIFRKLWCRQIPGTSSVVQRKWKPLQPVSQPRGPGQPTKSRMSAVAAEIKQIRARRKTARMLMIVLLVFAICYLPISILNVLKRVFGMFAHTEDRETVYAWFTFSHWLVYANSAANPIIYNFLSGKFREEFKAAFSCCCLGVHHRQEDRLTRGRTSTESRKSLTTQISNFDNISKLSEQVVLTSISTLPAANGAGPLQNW
Put plainly: (§1) Binding affinity to orexin receptor 2 (unknown origin).

In test [2] the target is T2, Orexin/Hypocretin receptor type 1 (Homo sapiens, UniProt O43613).
T2 sequence (O43613 whole entry): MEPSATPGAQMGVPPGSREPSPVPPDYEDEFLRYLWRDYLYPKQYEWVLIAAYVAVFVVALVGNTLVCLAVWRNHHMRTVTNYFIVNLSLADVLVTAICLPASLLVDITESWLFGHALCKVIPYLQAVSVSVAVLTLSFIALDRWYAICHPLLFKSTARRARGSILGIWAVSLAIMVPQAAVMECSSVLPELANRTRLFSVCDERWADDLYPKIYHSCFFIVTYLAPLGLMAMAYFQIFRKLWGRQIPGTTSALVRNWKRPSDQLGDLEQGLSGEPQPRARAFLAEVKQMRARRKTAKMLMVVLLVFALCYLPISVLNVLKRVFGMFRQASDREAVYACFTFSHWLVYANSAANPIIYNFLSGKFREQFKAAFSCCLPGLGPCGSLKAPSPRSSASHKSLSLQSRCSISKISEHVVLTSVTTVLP
Put plainly: (§2) Binding affinity to orexin receptor 1 (unknown origin).

Test [3] concerns the target 5-hydroxytryptamine receptor 2B (Homo sapiens, UniProt P41595). Description: Binding affinity to 5HT2B receptor (unknown origin).
A further test deals with D(1A) dopamine receptor (Homo sapiens, UniProt P21728). Description: Binding affinity to dopamine D1 receptor (unknown origin).
Test [4] has as its target T1, Orexin receptor type 2. Put plainly: Antagonist activity at human orexin receptor 2 expressed in CHO cells assessed as inhibition of orexin-A-induced calcium flux by FLIPR assay. The class given is functional, cell-based.
The target of test [5] is T2, Orexin/Hypocretin receptor type 1. Description: Antagonist activity at human orexin receptor 1 expressed in CHO cells assessed as inhibition of orexin-A-induced calcium flux by FLIPR assay. The class given is functional, cell-based.
Test [6] addresses T3, Orexin receptor type 2 (Homo sapiens) (UniProt O43614).
T3 sequence (whole entry): T1 sequence (O43614 whole entry)
Described as §1.

For test [7], the target named is T4, Orexin/Hypocretin receptor type 1 (Homo sapiens) (UniProt O43613).
T4 sequence (whole entry): T2 sequence (O43613 whole entry)
The test is described as §2.

The target of test [8] is Kappa-type opioid receptor (Homo sapiens, UniProt P41145). Put plainly: Binding affinity to kappa opioid receptor (unknown origin).
In a further test the target is Adenosine receptor A2a (Homo sapiens, UniProt P29274). Description: Binding affinity to adenosine A2A receptor (unknown origin).
In test [9] the target is T5, 5-hydroxytryptamine receptor 2C (Homo sapiens, UniProt P28335).
T5 sequence (P28335 whole entry): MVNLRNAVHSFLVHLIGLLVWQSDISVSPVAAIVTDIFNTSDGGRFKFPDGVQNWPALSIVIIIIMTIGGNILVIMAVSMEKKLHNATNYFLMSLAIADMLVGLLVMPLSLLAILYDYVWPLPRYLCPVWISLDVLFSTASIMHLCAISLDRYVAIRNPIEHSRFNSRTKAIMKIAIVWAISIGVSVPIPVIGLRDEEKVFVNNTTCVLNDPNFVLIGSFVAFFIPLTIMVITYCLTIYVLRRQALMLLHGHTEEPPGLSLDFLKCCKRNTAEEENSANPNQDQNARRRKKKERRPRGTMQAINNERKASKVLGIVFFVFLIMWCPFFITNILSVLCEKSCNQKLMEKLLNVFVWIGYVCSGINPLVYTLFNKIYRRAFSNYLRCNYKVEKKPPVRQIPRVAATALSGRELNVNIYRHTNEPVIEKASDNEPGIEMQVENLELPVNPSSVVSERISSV
Put plainly: Binding affinity to 5HT2C receptor (unknown origin).

D(1A) dopamine receptor, sequence (P21728 whole entry): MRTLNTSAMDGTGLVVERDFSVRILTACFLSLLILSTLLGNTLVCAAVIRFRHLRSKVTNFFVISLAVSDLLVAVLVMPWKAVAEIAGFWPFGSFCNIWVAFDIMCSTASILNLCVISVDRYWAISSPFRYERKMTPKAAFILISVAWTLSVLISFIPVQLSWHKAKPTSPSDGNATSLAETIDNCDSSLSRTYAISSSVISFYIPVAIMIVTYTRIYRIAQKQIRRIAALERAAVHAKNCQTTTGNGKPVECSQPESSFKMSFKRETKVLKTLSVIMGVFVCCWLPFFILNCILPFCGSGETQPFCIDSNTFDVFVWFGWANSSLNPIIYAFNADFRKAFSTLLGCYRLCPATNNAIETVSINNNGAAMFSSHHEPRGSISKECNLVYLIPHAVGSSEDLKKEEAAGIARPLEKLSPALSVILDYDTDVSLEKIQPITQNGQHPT
5-hydroxytryptamine receptor 2B, sequence (P41595 whole entry): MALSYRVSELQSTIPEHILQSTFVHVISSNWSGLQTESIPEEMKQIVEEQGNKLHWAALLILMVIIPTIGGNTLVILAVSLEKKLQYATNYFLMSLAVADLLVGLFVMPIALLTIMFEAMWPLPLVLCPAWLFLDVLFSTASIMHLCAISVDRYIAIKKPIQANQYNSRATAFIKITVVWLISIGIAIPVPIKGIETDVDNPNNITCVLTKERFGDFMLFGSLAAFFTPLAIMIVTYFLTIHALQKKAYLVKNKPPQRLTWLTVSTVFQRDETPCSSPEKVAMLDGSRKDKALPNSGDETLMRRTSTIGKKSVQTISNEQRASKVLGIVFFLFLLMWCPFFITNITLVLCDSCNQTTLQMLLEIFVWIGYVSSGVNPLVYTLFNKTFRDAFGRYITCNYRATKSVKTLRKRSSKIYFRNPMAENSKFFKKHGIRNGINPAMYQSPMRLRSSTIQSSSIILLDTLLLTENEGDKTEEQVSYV
Kappa-type opioid receptor, sequence (P41145 whole entry): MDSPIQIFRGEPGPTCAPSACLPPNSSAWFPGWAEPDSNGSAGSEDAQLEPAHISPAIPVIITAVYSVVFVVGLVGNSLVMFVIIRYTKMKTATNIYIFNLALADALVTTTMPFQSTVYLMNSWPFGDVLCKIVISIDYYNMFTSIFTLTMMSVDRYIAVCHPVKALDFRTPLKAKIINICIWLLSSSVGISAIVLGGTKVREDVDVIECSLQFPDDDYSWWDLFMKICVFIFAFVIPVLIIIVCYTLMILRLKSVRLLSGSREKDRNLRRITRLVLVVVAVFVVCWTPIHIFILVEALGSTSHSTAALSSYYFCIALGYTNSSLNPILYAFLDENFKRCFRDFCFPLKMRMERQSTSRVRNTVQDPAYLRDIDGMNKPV
Adenosine receptor A2a, sequence (P29274 whole entry): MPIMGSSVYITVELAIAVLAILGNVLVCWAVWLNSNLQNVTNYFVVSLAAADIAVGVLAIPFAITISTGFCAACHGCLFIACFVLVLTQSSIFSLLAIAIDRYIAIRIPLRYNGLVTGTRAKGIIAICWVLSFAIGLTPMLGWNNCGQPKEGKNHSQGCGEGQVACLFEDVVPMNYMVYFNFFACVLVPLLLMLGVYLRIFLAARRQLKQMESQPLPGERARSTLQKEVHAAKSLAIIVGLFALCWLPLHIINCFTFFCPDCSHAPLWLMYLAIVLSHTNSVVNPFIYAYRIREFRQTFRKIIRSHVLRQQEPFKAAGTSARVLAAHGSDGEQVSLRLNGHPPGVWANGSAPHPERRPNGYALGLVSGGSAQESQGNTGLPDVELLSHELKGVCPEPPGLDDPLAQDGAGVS

As for `Cc1cc(NC(=O)Nc2ccc(N(C)C)cc2)c2cc(F)cc(F)c2n1`, the inhibitory constant (Ki) on Orexin receptor type 2 [1] stood at 1400 nM; in [2], 22 nM; in test [3], 320 nM; at D(1A) dopamine receptor, 1780 nM.

Turning to `CN(Cc1ccccc1)C(=O)Cn1cc(S(=O)(=O)Cc2ccccc2)c2ccccc21`, the IC50 at Orexin receptor type 2 [4] turned out to be 35 nM; in test [5], 3460 nM.

On to `O=C(Cn1cc(S(=O)(=O)Cc2ccc(F)cc2)c2ccccc21)NCc1ccc(F)cc1`, for which the values for the IC50 (on Orexin receptor type 2 [4]; in test [5]) were 96 nM and 9190 nM, respectively.

Take `Cc1ccc(NC[C@@H]2C[C@H]3C[C@H]3CN2C(=O)c2nc(C)ccc2OCC2CC2)nc1`: the Kb in test [6] worked out at 4 nM; in [7], 0.5 nM.

Take `CCCOc1ccc(C)nc1C(=O)N1C[C@@H]2C[C@@H]2C[C@H]1CNc1ncc(C(F)(F)F)cn1`: the Kb in [6] was found to be 63 nM; in test [7], 0.3 nM.

Turning to `Cc1ccc(-n2nccn2)c(C(=O)N2CCC[C@@H](COc3nccc4ccccc34)[C@@H]2C)c1`, the inhibition constant (Ki) in test [2] turned out to be 0.5 nM.

`[3H]c1cccc([3H])c1-c1nnc(C[C@@H]2CCCN2C(=O)c2nc(C)sc2-c2ccccc2F)o1`: the results for the inhibitory constant (Ki) (on Orexin receptor type 2 [1]; in test [2]) were 129 nM and 1.1 nM, respectively.

In the case of `Cc1nc(C(=O)N2CC3(CC3)C[C@H]2CNc2ccc(Cl)cn2)c(-c2ccccc2)s1`, the Kb in [6] stood at 79.4 nM; in test [7], 5 nM.

Consider `Cc1c(S(=O)(=O)Cc2ccc(F)cc2)c2ccccn2c1CC(=O)N(C)Cc1ccc(F)cc1`, for which the Ki at Orexin receptor type 2 [1] was found to be 5.7 nM; in [2] it was 4360 nM.

Consider `CCOc1ccc(C)nc1C(=O)N1C[C@@H]2C[C@@H]2C[C@H]1CNc1ncc(C)cn1`, for which the figures for the Kb in [6] and in test [7] were 100 nM and 0.8 nM, respectively.

For `Cc1ccc(-n2nccn2)c(C(=O)N2C[C@H](COc3ncccc3C)OC[C@H]2C)c1`, in test [5], the inhibition constant (Ki) worked out at 720 nM.

For `Cc1nc(C(=O)N2CC3(CC3)C[C@H]2CNc2ncc(Cl)cn2)c(-c2ccccc2)s1`, the Kb in test [6] and in test [7] was 158 nM in each case.

Take `CN(Cc1ccc(F)cc1)C(=O)Cn1cc(S(=O)(=O)Cc2ccc(F)cc2)c2ccccc21`: the values for the IC50 (at Orexin receptor type 2 [4]; in test [5]) were 5 nM and 4360 nM, respectively.

On to `Cc1ccc(-c2ncccn2)c(C(=O)N2C[C@H](COc3ccc(F)cn3)CC[C@H]2C)c1` [FILOREXANT], for which the affinity on Orexin receptor type 2 [1], expressed as Ki, was 0.3 nM.

On to `CCCOc1ccc(C)nc1C(=O)N1C[C@@H]2C[C@@H]2C[C@H]1CNc1cnc(C)c(C)n1`, for which the Kb in test [6] was determined as 1.3 nM; in test [7], 1 nM.

As for `Cc1cccc(-c2sc(C)nc2C(=O)N2CCC2CNC(=O)c2c(N)nc3sccn23)c1` (racemic), the IC50 at Orexin receptor type 2 [4] is 5 nM; in test [5], 10 nM.

For the molecule `CC1(C)OC[C@H](NC(=O)Nc2ccc(Br)cc2Br)[C@H](c2ccccc2)O1`, the results for the inhibition constant Ki (at Orexin receptor type 2 [1]; in [2]) were 6 nM and 1640 nM, respectively.

`Cc1ccc(-n2nccn2)c(C(=O)N2CCC[C@@H](COc3ccccn3)[C@@H]2C)c1` displayed an inhibition constant Ki in test [2] of 1 nM.

As for `CNC(=O)[C@@H](c1ccccc1)N1CCc2cc(OC)c(OC)cc2[C@@H]1CCc1ccc(C(F)(F)F)cc1` [ALMOREXANT], the affinity at Orexin receptor type 2 [1], expressed as Ki, was 8 nM.

Consider `Cc1nc(C(=O)N2CCC[C@H]2Cc2nnc(-c3ccccc3)o2)c(-c2ccccc2F)s1`, for which the inhibitory constant (Ki) on Orexin receptor type 2 [1] is 129 nM; in test [2], 1.1 nM.

For the molecule `Cc1cc(C)nc(NC[C@@H]2CC3(CC3)CN2C(=O)c2nc(C)sc2-c2ccccc2)n1`, the Kb in [6] was found to be 2.5 nM; in test [7], 31.6 nM.

`COc1ccc(C[C@H]2c3cc(OC)c(OC)cc3CCN2[C@@H](C(=O)NC(C)C)c2ccccc2)cc1OC` gave an IC50 in test [2] of 6 nM.

Regarding `CCn1nc(C)cc1C(=O)NCC[C@H](Cc1ccccc1)N(C)C(=O)c1cc(C)ccc1-n1nccn1`, the Kd on Orexin receptor type 2 [1] was 7 nM; in test [2], 3050 nM.

`COc1c(F)cccc1C(=O)N1C[C@@H](C)CC[C@H]1CNc1ccc(Br)cn1` (racemic): the figures for the Kb in test [6] and in test [7] were 126 nM and 1.6 nM, respectively. The molecule further registered an inhibition constant (Ki) in test [8] of 320 nM.

On to `CCN(CC)c1ccc(NC(=O)c2oc3ccccc3c2C)cc1`, for which the Ki at Orexin receptor type 2 [1] was above 10000 nM; in [2], 36 nM.

`Cc1c(S(=O)(=O)Cc2ccccc2)c2ccccn2c1CC(=O)N(C)Cc1ccc(F)cc1`: the IC50 on Orexin receptor type 2 [4] is 0.8 nM; in test [5] it was 2380 nM.

Take `Cc1cnn(-c2ccc(C)nc2C(=O)N2C[C@@H]3C[C@@H]3C[C@H]2CNc2ncc(C(F)(F)F)cn2)c1`: the Kb in test [6] was 0.4 nM; in test [7], 0.6 nM.

As for `Cc1nc2ccc(NC(=O)Nc3ccnc4cccnc34)cc2o1`, the inhibition constant Ki is 670 nM at Adenosine receptor A2a and 1200 nM in test [9].

On to `CN(C)c1ccc(NC(=O)Nc2ccnc3c(F)ccc(F)c23)cc1`, for which the values for the inhibition constant (Ki) (on Orexin receptor type 2 [1]; in test [2]) were 503 nM and 8.7 nM, respectively.

Consider `Cc1c(S(=O)(=O)Cc2ccccc2)c2ccccn2c1CC(=O)N(C)Cc1ccccc1`, for which the concentration for half-maximal inhibition (IC50) on Orexin receptor type 2 [4] is 1 nM; in test [5] it was 3780 nM.

Consider `Cc1cccc(-c2sc(C)nc2C(=O)N2CCC2CNC(=O)c2cccc3c2OCCN3C)c1` (racemic), for which the half-maximal inhibitory concentration (IC50) came to 13 nM on Orexin receptor type 2 [4] and 3100 nM in [5].

Take `Cc1ccc(-n2nccn2)c(C(=O)N2C[C@H](COc3nccc4ccccc34)OC[C@H]2C)c1`: the Ki in [5] came out at 2.2 nM.

Consider `CN(Cc1ccccc1)C(=O)Cn1nc(S(=O)(=O)Cc2ccccc2)c2ccccc21`, for which the IC50 on Orexin receptor type 2 [4] was 14 nM; in test [5], 998 nM.

Molecule `Cc1nc(C(=O)N2CCCC[C@H]2CNC(=O)c2cccc3occc23)c(-c2ccc(F)cc2)s1` [SB-649868] displayed an inhibition constant Ki in test [2] of 0.3 nM.

With `CN(Cc1ccc(F)cc1)C(=O)Cc1nc(S(=O)(=O)Cc2ccccc2)c2ccccn12`, the 50% inhibitory concentration (IC50) is 194 nM at Orexin receptor type 2 [4] and above 10000 nM in [5].

In turn, `CCOc1ccc(C)nc1C(=O)N1C[C@@H]2C[C@@H]2C[C@H]1CNc1ncc(C(F)(F)F)cn1` gave a Kb in test [7] of 0.3 nM.

Turning to `Cc1ccc(-c2ncccc2C)c(C(=O)N2C[C@@H]3C[C@@H]3C[C@H]2CNc2ncc(C(F)(F)F)cn2)n1`, the Kb in test [6] is 16 nM; in test [7], 0.6 nM.

On to `Cc1cc(C)nc(N2CC[C@@H]3CN(C(=O)c4cc(F)ccc4-n4nccn4)[C@H]3C2)n1`, for which the inhibition constant (Ki) on Orexin receptor type 2 [4] was determined as 18 nM; in test [5] it was 1400 nM.

In general, Ki refers to a measure of affinity in units of concentration, obtained from inhibition or displacement. For orientation: IC50 means the midpoint of a concentration-inhibition curve. As usually defined, the Kd is the free concentration of one partner at which half of the binding sites on the other are occupied at equilibrium, for simple one-to-one binding.
